We go through two compounds from patent US8394821B2, “Activated blood coagulation factor inhibitor” (Daiichi Sankyo Company, Limited, priority 2009, dated 2013).

Values after ≈ are worked out from the molar mass of the structure shown. Where two headings read alike, the source gives them in different places.

Common to all, as to type: physicochemical
Data set [1] is described as follows: Moisture absorption and desorption characteristics (microbalance, water vapor adsorption apparatus). As to conditions: 25° C., 10-90% RH. The protocol: Various samples prepared in Example 1 were separately placed in quartz holders and measured for their moisture absorption and desorption behavior under the following conditions using a microbalance.
Moisture absorption and desorption behavior measurement conditions (sample volume: approximately 20 mg, measurement range: 10-90% RH, measurement temperature: 25° C., variable: within 0.03%, varying length of time: 10 min., apparatus: VTI atmospheric pressure-type automatic water vapor adsorption apparatus SGA-100)

Data set [2] can be described thus: Evaluation of crystal stability (storage at 25° C. at adjusted relative humidity). The following applies: for 0% RH Weight change (%) / 52% RH Weight change (%) / 93% RH Weight change (%): 25° C., 3-day storage. The protocol:
Approximately 50 mg of each of various samples prepared in Example 1 was placed in a weighing bottle and stored at 25° C. in a desiccator whose relative humidity was adjusted to 0%, 52%, or 93% by a saturated salt solution method (silica gel, Mg(NO3)2, KNO3). […]

Data set [3] in a line: Evaluation of chemical stability (dry heat, wet heat, light irradiation; HPLC residue). The following applies: for Residue (%, mean ± SD) Light irradiation (Lx · hr) 60 × 10^4: light irradiation 60 × 10^4 Lx · hr; for Residue (%, mean ± SD) Light irradiation (Lx · hr) 120 × 10^4: light irradiation 120 × 10^4 Lx · hr; for Residue (%, mean ± SD) 50° C., 0% RH 1 week later / Residue (%, mean ± SD) 50° C., 0% RH 2 week later: dry heat 50° C.; for Residue (%, mean ± SD) 50° C., 0% RH 2 week later / Residue (%, mean ± SD) 40° C., 75% RH 2 week later: 2 weeks; for Residue (%, mean ± SD) 40° C., 75% RH 1 week later / Residue (%, mean ± SD) 40° C., 75% RH 2 week later: wet heat 40° C. The protocol:
Approximately 2 mg of each of various samples prepared in Example 1 was weighed into an aluminum pan for thermal analysis and stored under dry heat (50° C., 0% RH) or wet heat (40° C., 75% RH) conditions. 1 week or 2 weeks later, each sample was collected, and the weight change was measured. Then, the whole amount was dissolved in 20 mL of eluent and analyzed by HPLC. For photolysis samples, approximately 10 mg of each sample was weighed into a weighing bottle and stored at 25° C. in a light irradiator. After irradiation at 600,000 or 1,200,000 Lx/hr, the sample was collected, and the weight change was measured. Then, the whole amount was dissolved in 100 mL of eluent and analyzed by HPLC. The residue proportion was determined from the ratio between the concentration of the sample solution calculated from a calibration curve prepared before measurement and the theoretical concentration calculated from weight measurement.
Measurement conditions of HPLC (column: Waters Symmetry C18 4.6 mm×150 mm, eluent: 0.05 M phosphate buffer (pH 5.0): acetonitrile=80:20, flow rate: 1 mL/min., detection: UV 220 nm, column temperature: 40° C.)

Data set [4] is described as follows: Evaluation of solubility (37° C., 30 min, HPLC). As to conditions: thermodynamic from solid. The protocol:
A supersaturated amount of each sample was placed in a 12-mL test tube, and 3 mL of a test solution (water, Japanese Pharmacopoeia disintegration test solution No. 1 (JP1), and Japanese Pharmacopoeia disintegration test solution No. 2 (JP2)) was added thereto. The test tube was incubated in a constant-temperature water bath at 37° C. The test tube was shaken using a vortex mixer for 30 seconds every 5 minutes. 30 minutes later, the supernatant was filtered through a membrane filter (pore size: 0.45 μm), appropriately diluted with eluent, and then analyzed by HPLC under the following conditions. The concentration was calculated from a calibration curve prepared before measurement.
Measurement conditions of HPLC (column: Waters Symmetry C18 4.6 mm×150 mm, eluent: 0.05 M phosphate buffer (pH 5.0): acetonitrile=70:30, flow rate: 1 mL/min., detection: UV 220 nm, column temperature: 40° C.)

Turning to `CN1CCc2nc(C(=O)N[C@@H]3C[C@@H](C(=O)N(C)C)CC[C@@H]3NC(=O)C(=O)Nc3ccc(Cl)cn3)sc2C1.O.O=C(O)C(O)C(O)C(=O)O` [compound II, N^1-(5-chloropyridin-2-yl)-N^2-((1S,2R,4S)-4-[(dimethylamino)carbonyl]-2-{[(5-methyl-4,5,6,7-tetrahydrothiazolo[5,4-c]pyridin-2-yl)carbonyl]amino}cyclohexyl)ethanediamide(+)-tartrate monohydrate], the “moisture absorption and desorption characteristics/behavior (in words)” value in data set [1] is “favorable moisture absorption and desorption characteristics”. In data set [2], the “0% RH Weight change (%)” value is reported as −0.35%, the “52% RH Weight change (%)” value was 0.05% and the “93% RH Weight change (%)” value is on record as 0.31%. In data set [2] (stored for 3 days under three standard relative humidity conditions at 25° C.), the “stability on storage: weight and crystal form (in words)” value was “stable without change both in weight and in crystal form”. Moreover, in data set [3] (25° C.), the “Residue (%, mean ± SD) Light irradiation (Lx · hr) 60 × 10^4” value came to 98.2 ± 0.9% and the “Residue (%, mean ± SD) Light irradiation (Lx · hr) 120 × 10^4” value was found to be 95.0 ± 1.2%. Besides, in data set [3], the “Residue (%, mean ± SD) 50° C., 0% RH 1 week later” value is on record as 100.4 ± 0.7%; the “Residue (%, mean ± SD) 50° C., 0% RH 2 week later” value is 100.1 ± 0.7%; the “Residue (%, mean ± SD) 40° C., 75% RH 1 week later” value is 100.1 ± 0.7%; the “Residue (%, mean ± SD) 40° C., 75% RH 2 week later” value is reported as 100.1 ± 0.3%.
On to `CN1CCc2nc(C(=O)N[C@@H]3C[C@@H](C(=O)N(C)C)CC[C@@H]3NC(=O)C(=O)Nc3ccc(Cl)cn3)sc2C1` [Compound A, N^1-(5-chloropyridin-2-yl)-N^2-((1S,2R,4S)-4-[(dimethylamino)carbonyl]-2-{[(5-methyl-4,5,6,7-tetrahydrothiazolo[5,4-c]pyridin-2-yl)carbonyl]amino}cyclohexyl)ethanediamide], for which the solubility at 30 min in data set [4] (pH 1.2, simulated gastric fluid, Japanese Pharmacopoeia disintegration test solution No. 1, 37° C., read-out: JP1 (Solubility (μg/mL))) was above 2000 µg/mL. The solubility at 30 min in data set [4] (pH 6.8, aqueous buffer, Japanese Pharmacopoeia disintegration test solution No. 2, 37° C., read-out: JP2 (Solubility (μg/mL))) was found to be 49.8 µg/mL (≈ 90.9 µM). The solubility at 30 min in data set [4] (water, 37° C., read-out: Water (Solubility (μg/mL))) worked out at 47.5 µg/mL (≈ 86.7 µM). For the same compound, in data set [2], the “0% RH Weight change (%)” value is −0.32%, the “52% RH Weight change (%)” value was −0.22% and the “93% RH Weight change (%)” value is −0.04%. Also, the “Light irradiation Color” value in data set [3] (25° C., after light irradiation) was “Changed”. Also, in data set [3] (25° C.), the “Residue (%, mean ± SD) Light irradiation (Lx · hr) 60 × 10^4” value came to 92.0 ± 0.3% and the “Residue (%, mean ± SD) Light irradiation (Lx · hr) 120 × 10^4” value is given as 82.8 ± 0.4%. In addition, in data set [3], the “Residue (%, mean ± SD) 50° C., 0% RH 1 week later” value is 99.3 ± 0.4%; the “Residue (%, mean ± SD) 50° C., 0% RH 2 week later” value is 97.5 ± 0.7%; the “Residue (%, mean ± SD) 40° C., 75% RH 1 week later” value came out at 99.8 ± 0.3%; the “Residue (%, mean ± SD) 40° C., 75% RH 2 week later” value is 98.7 ± 1.3%.
